22 compounds from US9540366B2, “Ring-fused heterocyclic compound” (Kyowa Hakko Kirin Co., Ltd., priority 2012, dated 2017) can be followed below.

Each structure is given as a SMILES string. Like-named read-outs stand apart in the source and are kept apart here.

As usually defined, the IC50 is the concentration that gives 50% inhibition.

The target of this test is T1, human Cav3.2 T-type Ca2+ channel (Homo sapiens, UniProt O95180).
T1 construct: expressed in transfected cells; host or cells: KJMGER8 cells (Namalwa cell-derived cell line)
In words: Inhibitory effect for intracellular calcium response via Cav3.2 T-type Ca2+ channels (FLIPR Calcium 3 Assay Kit). The test is classed as cell-based. (A change in cytosolic calcium serves as a functional read-out for many receptors and channels.)

Where [1] appears, read: human Cav3.2-expressing KJMGER8 cells (Namalwa-derived), calcium response induced by 5 mmol/L CaCl2, 3 μmol/L mibefradil as reference, read-out: IC50 for the human Cav3.2 T-type Ca2+ current.

T1 sequence (O95180 whole entry): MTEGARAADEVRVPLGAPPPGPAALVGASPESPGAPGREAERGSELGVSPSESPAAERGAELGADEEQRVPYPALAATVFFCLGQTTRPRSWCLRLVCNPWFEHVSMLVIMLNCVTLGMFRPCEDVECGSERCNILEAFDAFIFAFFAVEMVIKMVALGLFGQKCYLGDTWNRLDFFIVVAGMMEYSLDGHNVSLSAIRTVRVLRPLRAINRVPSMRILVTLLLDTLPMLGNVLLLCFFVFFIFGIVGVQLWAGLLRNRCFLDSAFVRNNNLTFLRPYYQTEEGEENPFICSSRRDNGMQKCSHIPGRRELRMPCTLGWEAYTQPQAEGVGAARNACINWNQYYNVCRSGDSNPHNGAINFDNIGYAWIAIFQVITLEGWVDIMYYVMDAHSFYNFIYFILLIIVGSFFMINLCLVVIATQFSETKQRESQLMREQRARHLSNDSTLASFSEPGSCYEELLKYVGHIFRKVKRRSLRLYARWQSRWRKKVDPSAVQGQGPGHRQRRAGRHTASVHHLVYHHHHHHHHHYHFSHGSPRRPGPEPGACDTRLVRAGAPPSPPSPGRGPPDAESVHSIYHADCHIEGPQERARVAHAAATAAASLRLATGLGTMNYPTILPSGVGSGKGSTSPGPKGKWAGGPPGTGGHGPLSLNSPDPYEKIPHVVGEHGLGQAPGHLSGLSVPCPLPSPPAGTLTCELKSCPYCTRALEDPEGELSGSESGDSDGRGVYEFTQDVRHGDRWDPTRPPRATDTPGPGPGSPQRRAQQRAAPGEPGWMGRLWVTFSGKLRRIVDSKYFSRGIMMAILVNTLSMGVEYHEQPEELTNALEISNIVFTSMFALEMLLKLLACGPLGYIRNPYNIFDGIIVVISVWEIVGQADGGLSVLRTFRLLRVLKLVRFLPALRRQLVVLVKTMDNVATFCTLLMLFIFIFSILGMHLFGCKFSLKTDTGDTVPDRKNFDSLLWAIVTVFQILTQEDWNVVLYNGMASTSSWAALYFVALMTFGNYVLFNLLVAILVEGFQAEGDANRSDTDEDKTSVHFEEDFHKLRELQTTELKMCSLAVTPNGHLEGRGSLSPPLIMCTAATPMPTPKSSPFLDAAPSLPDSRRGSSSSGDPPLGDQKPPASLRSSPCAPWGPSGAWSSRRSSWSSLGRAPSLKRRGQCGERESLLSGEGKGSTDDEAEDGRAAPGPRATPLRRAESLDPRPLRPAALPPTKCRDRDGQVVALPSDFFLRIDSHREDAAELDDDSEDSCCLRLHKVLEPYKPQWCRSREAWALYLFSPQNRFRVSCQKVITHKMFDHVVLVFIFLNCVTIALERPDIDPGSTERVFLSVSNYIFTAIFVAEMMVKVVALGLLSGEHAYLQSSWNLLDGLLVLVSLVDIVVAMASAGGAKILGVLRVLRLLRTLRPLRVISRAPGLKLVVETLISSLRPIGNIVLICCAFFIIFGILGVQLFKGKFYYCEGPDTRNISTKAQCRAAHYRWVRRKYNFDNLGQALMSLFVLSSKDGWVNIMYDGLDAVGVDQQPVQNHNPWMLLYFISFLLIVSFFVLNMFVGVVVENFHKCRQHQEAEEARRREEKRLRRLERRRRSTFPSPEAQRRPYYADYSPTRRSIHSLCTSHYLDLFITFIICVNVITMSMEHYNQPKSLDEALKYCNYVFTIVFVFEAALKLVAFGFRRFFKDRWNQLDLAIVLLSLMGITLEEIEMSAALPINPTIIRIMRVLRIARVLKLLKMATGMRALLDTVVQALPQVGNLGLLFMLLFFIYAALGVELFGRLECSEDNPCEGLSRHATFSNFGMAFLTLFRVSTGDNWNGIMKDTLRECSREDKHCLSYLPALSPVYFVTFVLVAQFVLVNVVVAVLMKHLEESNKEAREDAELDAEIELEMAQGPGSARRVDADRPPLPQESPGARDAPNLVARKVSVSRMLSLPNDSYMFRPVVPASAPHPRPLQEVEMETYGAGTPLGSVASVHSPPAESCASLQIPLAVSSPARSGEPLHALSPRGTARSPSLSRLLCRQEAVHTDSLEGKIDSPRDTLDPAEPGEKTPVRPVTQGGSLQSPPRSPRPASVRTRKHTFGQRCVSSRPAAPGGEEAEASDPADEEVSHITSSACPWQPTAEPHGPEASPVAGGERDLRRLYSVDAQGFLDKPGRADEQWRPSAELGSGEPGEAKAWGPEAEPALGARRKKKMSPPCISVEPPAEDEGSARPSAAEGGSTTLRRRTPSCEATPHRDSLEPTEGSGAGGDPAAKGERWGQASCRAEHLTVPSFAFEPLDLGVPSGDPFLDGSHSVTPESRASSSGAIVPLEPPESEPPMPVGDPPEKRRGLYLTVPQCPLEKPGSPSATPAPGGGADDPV

As for `N#Cc1cc(C(=O)NC2CCOC2)cc2nc(C(F)(F)F)c(CC3CCC(F)(F)CC3)n12` (stereo not shown) [Compound 62], the IC50 is no more than 100 nM. For the compound `Cc1cc(C(=O)Nc2ccccc2)cc2nc(C(C)O)c(CC3CCC(F)(F)CC3)n12` (stereo not shown) [Compound 20, 3-[(4,4-Difluorocyclohexyl)methyl]-2-(1-hydroxyethyl)-5-methyl-N-phenylimidazo[1,2-a]pyridine-7-carboxamide], the half-inhibitory concentration (IC50) under setting [1] is no more than 100 nM. In the case of `CC(C)(CO)CNC(=O)c1cc(C#N)n2c(CC3CCC(F)(F)CC3)c(C(F)(F)F)nc2c1` [Compound 155, 5-Cyano-3-[(4,4-difluorocyclohexyl)methyl]-N-(3-hydroxy-2,2-dimethylpropyl)-2-(trifluoromethyl)imidazo[1,2-a]pyridine-7-carboxamide], the IC50 is no more than 100 nM. `Cc1cc(C(O)C(O)C2CCOCC2)cc2nc(C(F)(F)F)c(CC3CCC(F)(F)CC3)n12` (stereo not shown) [Compound 82, 1-{3-[(4,4-Difluorocyclohexyl)methyl]-5-methyl-2-(trifluoromethyl)imidazo[1,2-a]pyridin-7-yl}-2-(tetrahydro-2H-pyran-4-yl)ethane-1,2-diol]: the IC50 was no more than 100 nM.

Turning to `O=C(NC1CCC(F)(F)CC1)c1cc2nc(C3CC3)c(CC3CCC(F)(F)CC3)n2cc1Cl` [Compound 14, 6-Chloro-2-cyclopropyl-N-(4,4-difluorocyclohexyl)-3-[(4,4-difluorocyclohexyl)methyl]imidazo[1,2-a]pyridine-7-carboxamide], the 50% inhibitory concentration (IC50) was no more than 100 nM. For `N#Cc1cc(C(=O)NC2(CO)CCOCC2)cc2nc(C(F)(F)F)c(CC3CCC(F)(F)CC3)n12` [Compound 58, 5-Cyano-3-[(4,4-difluorocyclohexyl)methyl]-N-[4-(hydroxymethyl)tetrahydro-2H-pyran-4-yl]-2-(trifluoromethyl)imidazo[1,2-a]pyridine-7-carboxamide], the concentration for half-maximal inhibition (IC50) was no more than 100 nM.

For `CCOC(=O)CNC(=O)c1cc(C#N)n2c(CC3CCC(F)(F)CC3)c(C(F)(F)F)nc2c1` [Compound 139, Ethyl 2-{5-cyano-3-[(4,4-difluorocyclohexyl)methyl]-2-(trifluoromethyl)imidazo[1,2-a]pyridine-7-carboxamide}acetate], the IC50 is no more than 100 nM.

Regarding `N#Cc1cc(C(=O)NCC2COCCO2)cc2nc(C(F)(F)F)c(CC3CCC(F)(F)CC3)n12` (stereo not shown) [Compound 59, N-[(1,4-Dioxan-2-yl)methyl]-5-cyano-3-[(4,4-difluorocyclohexyl)methyl]-2-(trifluoromethyl)imidazo[1,2-a]pyridine-7-carboxamide], the concentration for half-maximal inhibition (IC50) under setting [1] was no more than 100 nM.

Take `O=C(NCC(=O)N1CC(F)(F)C1)c1cc(Cl)n2c(CC3CCC(F)(F)CC3)c(C(F)(F)F)nc2c1` [Compound 172, 5-Chloro-N-[2-(3,3-difluoroazetidin-1-yl)-2-oxoethyl]-3-[(4,4-difluorocyclohexyl)methyl]-2-(trifluoromethyl)imidazo[1,2-a]pyridine-7-carboxamide]: the IC50 is no more than 100 nM.

On to `Cc1cc(C(=O)NC2CC(F)(F)C2)cc2nc(C(C)(C)O)c(CC3CCC(F)(F)CC3)n12` [Compound 10, N-(3,3-Difluorocyclobutyl)-3-[(4,4-difluorocyclohexyl)methyl]-2-(2-hydroxypropan-2-yl)-5-methylimidazo[1,2-a]pyridine-7-carboxamide], for which the half-maximal inhibitory concentration (IC50) is no more than 100 nM. For `CC(F)(F)c1nc2cc(C(=O)N[C@H]3C[C@@H]4CC[C@H]3O4)cc(C=O)n2c1CC1CCC(F)(F)CC1` [Compound 179, N-[(1R,2S,4S)-7-Oxabicyclo[2.2.1]heptan-2-yl]-3-[(4,4-difluorocyclohexyl)methyl]-2-(1,1-difluoroethyl)-5-formylimidazo[1,2-a]pyridine-7-carboxamide], the IC50 was no more than 100 nM. On to `Cc1cc(C(O)c2nc3ccccc3n2C)cc2nc(C(F)(F)F)c(CC3CCC(F)(F)CC3)n12` (stereo not shown) [Compound 120, {3-[(4,4-Difluorocyclohexyl)methyl]-5-methyl-2-(trifluoromethyl)imidazo[1,2-a]pyridin-7-yl}(1-methyl-1H-benzo[d]imidazol-2-yl)methanol], for which the half-maximal inhibitory concentration (IC50) under setting [1] is no more than 100 nM. Turning to `N#CC1(NC(=O)c2cc(Cl)n3c(CC4CCC(F)(F)CC4)c(C(F)(F)F)nc3c2)CC1` [Compound 175, 5-Chloro-N-(1-cyanocyclopropyl)-3-[(4,4-difluorocyclohexyl)methyl]-2-(trifluoromethyl)imidazo[1,2-a]pyridine-7-carboxamide], the IC50 was no more than 100 nM. For `Cc1cc(C(=O)NC2CCCOCC2)cc2nc(C(F)(F)F)c(CC3CCC(F)(F)CC3)n12` (stereo not shown) [Compound 74, 3-[(4,4-Difluorocyclohexyl)methyl]-5-methyl-N-(oxepan-4-yl)-2-(trifluoromethyl)imidazo[1,2-a]pyridine-7-carboxamide], the concentration for half-maximal inhibition (IC50) was no more than 100 nM.

`Cc1cc(C(=O)NC(C)(C)C)cc2nc(C(F)(F)F)c(CC3CCC(F)(F)CC3)n12` [Compound 217, N-tert-Butyl-3-[(4,4-difluorocyclohexyl)methyl]-5-methyl-2-(trifluoromethyl)imidazo[1,2-a]pyridine-7-carboxamide]: the IC50 was no more than 100 nM. On the same count and under the same terms, to `N#Cc1cc(C(=O)NC2CCOCC2)cc2nc(C(F)(F)F)c(Cc3ccc(Cl)cc3)n12` [Compound 211, 3-(4-Chlorobenzyl)-5-cyano-N-(tetrahydro-2H-pyran-4-yl)-2-(trifluoromethyl)imidazo[1,2-a]pyridine-7-carboxamide] belongs no more than 100 nM; to `N#Cc1cc(C(=O)NC23CCN(CC2)C3)cc2nc(C(F)(F)F)c(CC3CCC(F)(F)CC3)n12` [Compound 188, N-(1-Azabicyclo[2.2.1]heptan-4-yl)-5-cyano-3-[(4,4-difluorocyclohexyl)methyl]-2-(trifluoromethyl)imidazo[1,2-a]pyridine-7-carboxamide], no more than 100 nM; to `CCOC(C)(C)c1nc2cc(C(=O)NC3CCOCC3)cc(C)n2c1CC1CCC(F)(F)CC1` [Compound 1, 3-[(4,4-Difluorocyclohexyl)methyl]-2-(2-ethoxypropan-2-yl)-5-methyl-N-(tetrahydro-2H-pyran-4-yl)imidazo[1,2-a]pyridine-7-carboxamide], no more than 100 nM. Take `CC(=O)c1nc2cc(C(=O)Nc3ccccc3)cc(C)n2c1CC1CCC(F)(F)CC1` [Compound 19, 2-Acetyl-3-[(4,4-difluorocyclohexyl)methyl]-5-methyl-N-phenylimidazo[1,2-a]pyridine-7-carboxamide]: the IC50 is no more than 100 nM. Consider `CC(C)(NC(=O)c1cc(Cl)n2c(CC3CCC(F)(F)CC3)c(C(F)(F)F)nc2c1)C1CCOCC1` [Compound 81, 5-Chloro-3-[(4,4-difluorocyclohexyl)methyl]-N-[2-(tetrahydro-2H-pyran-4-yl)propan-2-yl]-2-(trifluoromethyl)imidazo[1,2-a]pyridine-7-carboxamide], for which the IC50 is no more than 100 nM.

As to `Cc1cc(CNC(=O)c2cc(Cl)n3c(CC4CCC(F)(F)CC4)c(C(F)(F)F)nc3c2)no1` [Compound 154, 5-Chloro-3-[(4,4-difluorocyclohexyl)methyl]-N-[(5-methylisoxazol-3-yl)methyl]-2-(trifluoromethyl)imidazo[1,2-a]pyridine-7-carboxamide], the IC50 under setting [1] is no more than 100 nM. Consider `CCC(F)(F)c1nc2cc(C(=O)NC3CCOCC3)cc(C)n2c1CC1CCC(F)(F)CC1` [Compound 27, 3-[(4,4-Difluorocyclohexyl)methyl]-2-(1,1-difluoropropyl)-5-methyl-N-(tetrahydro-2H-pyran-4-yl)imidazo[1,2-a]pyridine-7-carboxamide], for which the IC50 is no more than 100 nM.
